Results taken from patent US8552048B2, “Phosphoramidate alkylator prodrugs for the treatment of cancer” (Threshold Pharmaceuticals, Inc., priority 2006, dated 2013).
Where “and” joins values, the source holds several entries; their conditions need not be identical. Equal entries are not always repeated. Where two headings read alike, the source gives them in different places.

Assays:
[1] = Stability of ethanol formulation of TH302 by HPLC; type: physicochemical; settings: for TH302 (%): 40 μg/mL in ethanol
Procedure: A liquid formulation of TH302 in ethanol was prepared containing 1 mg TH302 in 1 mL of the solution. Aliquots were withdrawn from this formulation and diluted with ethanol to yield a 40 μg/mL formulation of TH302 in ethanol, which was incubated at 20° C. and 37° C. and the stability analyzed by high performance liquid chromatography (HPLC). The HPLC employed the following components and conditions: column (Alltech, Alltima C18, 50×4.6, 3 μm), mobile phase (water and acetonitrile), flow rate 0.8 mL/min, injection volume (10 μL), detection (UV detection at 325 nm and 254 nm), and column temperature (room temperature). The composition of the mobile phase was as tabulated below: […]

H460 NSCLC cancer cells = assay: H460 pleural cavity metastatic tumor model; type: in vivo, mice; settings: TH302 alone Q3D×5, 100 mg/kg, i.v.
Procedure: Metastatic tumors were also grown in mice by injecting H460 NSCLC cancer cells into the pleural cavity. Metastases were observed among other organs in the lungs and ovary. […] Thus, TH302 is effective in treatment of metastatic tumors, when administered alone and in combination with another anti cancer agent.

[2] = Pharmacokinetics after repeated administration (Q7D×3) to rats; type: in vivo; settings: rat, plasma; for clearance / AUC / Cmax / half-life / Vd: iv, TH302 in rats; for AUC: read-out: AUC; for Cmax: read-out: Cmax; for half-life: read-out: Half-Life (converted); for Vd: read-out: Vss
Procedure: Each rat received a 30 minute infusion once a week for three weeks (Q7D×3).
Br-IPM being capable of reacting with water and a number of other nucleophiles, for HPLC analysis of Br-IPM, the plasma obtained was frozen and treated with NaF and potassium oxalate.

[3] = Pharmacokinetics after repeated administration (Q7D×3) to dogs; type: in vivo; settings: dog; for clearance / half-life / AUC / Cmax / Vd: TH302 in dogs; for half-life: read-out: Half-Life (converted); for Cmax: read-out: Cmax; for Vd: read-out: Vss
Description: These changes were reversible.

[4] = Pharmacokinetics in nude mice; type: in vivo; settings: female, mouse, plasma
[5] = Pharmacokinetics in cynomolgus monkeys (20 mg/kg i.v.); type: in vivo; settings: for Vd: read-out: Vss
Procedure: (§1) Pharmacokinetic studies were performed in male CD-1 (50 mg/kg i.p. or orally (p.o.)) or female nude mice (50 mg/kg i.v. or i.p.), male Sprague-Dawley rats (1, 5, 20 and 50 mg/kg i.v. and 100 mg/kg, p.o.), beagle dogs (20 mg/kg, i.v.) and cynomologus monkeys (20 mg/kg i.v.). Plasma TH302 concentrations were analyzed using a LC/MS method and the pharmacokinetic parameters computed using a noncompartmental method. Interspecies scaling was performed according to standard methods.
Individual and mean pharmacokinetic parameters of TH302 following intravenous administration at a dose of 20 mg/kg (N=3) is shown in Table 7.

[6] = Interspecies scaling (complex Dedrick analysis); settings: 70-kg human
Procedure: as §1
Parts A, B, and C, below tabulate the pharmacokinetics of TH302 when administered to rats, Dogs, and monkeys.

[7] = Biodistribution by whole body autoradiography; type: in vivo, male Sprague Dawley rats; settings: rats, [^14C] TH302 50 mg/kg single i.v. bolus
Procedure: TH302 to rats. Five male Sprague Dawley rats were assigned to one dose group. Non-radiolabeled TH302 (0.06 g) was weighed into an appropriate formulation bottle, a solution of 153 μL of [^14C] TH302 was measured and transferred to the formulation bottle, followed by the addition of 6.85 mL of 50 PEG400 in saline. The resulting formulation was cold-sterilized by filtration through a 0.22 μm mesh size commercial filter. The dosing formulation was kept at ambient temperature and in the dark pending dose administration. Animals were administered radiolabelled TH302 by intravenous injection of the formulation at a dose of 50 mg/kg wherein a radioactivity of about 100 μCi was administered. Following administration of TH302, the animals were sacrificed at selected time-points and carcasses were flash-frozen and processed for sectioning. A series of sagittal and para-sagittal sections were obtained from each carcass and were exposed to highly sensitive film until adequate imprinting of radioactivity was obtained. The pictures obtained were analyzed semi-quantitatively using computerized densitometry.

[8] = in vivo, 16 mg/kg Q7D×3, Day 15
[9] = plasma, intravenous, 4 mg/kg Q7D×3, Day 15
[10] = plasma, intravenous, 8 mg/kg Q7D×3, Day 15
[11] = plasma, intravenous, 16 mg/kg Q7D×3, Day 15
[12] = cynomolgus monkey, plasma, iv, 20 mg/kg, cynomolgus monkeys, Mean (N=3)
[13] = cynomolgus monkey, plasma, iv, 20 mg/kg, monkeys
[14] = cynomolgus monkeys, individual animals, 20 mg/kg

Cn1c(COP(=O)(NCCBr)NCCBr)cnc1[N+](=O)[O-] [TH302]
TH302 (%) ([1]; 20° C., incubated 0 days): 96.97%
TH302 (%) ([1]; 20° C., incubated 3 days): 96.98%
TH302 (%) ([1]; 20° C., incubated 5 days): 96.91%
TH302 (%) ([1]; 20° C., incubated 7 days): 96.96%
TH302 (%) ([1]; 20° C., incubated 10 days): 96.95%
TH302 (%) ([1]; 20° C., incubated 14 days): 96.98%
TH302 (%) ([1]; 37° C., incubated 0 days): 96.97%
TH302 (%) ([1]; 37° C., incubated 3 days): 96.95%
TH302 (%) ([1]; 37° C., incubated 5 days): 96.98%
TH302 (%) ([1]; 37° C., incubated 7 days): 96.98%
TH302 (%) ([1]; 37° C., incubated 10 days): 96.30%
TH302 (%) ([1]; 37° C., incubated 14 days): 96.01%
TH302 (%) ([1]; 37° C., incubated 24 days): 95.46%
stability of solution in ethyl alcohol ([1]; 20° C., under the test conditions): stable
metastatic tumor mass (H460 NSCLC cancer cells): visible reduction in metastatic tumor mass
AUC at 15 day ([2]; intravenous, rats, 25 mg/kg dose of TH302, read-out: drug exposure, AUC of TH302): ~2110 ng·h/mL
clearance ([2]; 12.5 mg/kg Q7D×3, Day 15): 293 mL/min/kg
AUC ([2]; 12.5 mg/kg Q7D×3, Day 15): 699 ng·h/mL
Cmax ([2]; 12.5 mg/kg Q7D×3, Day 15): 1210 ng/mL
half-life ([2]; 12.5 mg/kg Q7D×3, Day 15): 16 min
Vd ([2]; 12.5 mg/kg Q7D×3, Day 15): 8.71 L/kg
clearance ([2]; 25 mg/kg Q7D×3, Day 15): 275 mL/min/kg
AUC ([2]; 25 mg/kg Q7D×3, Day 15): 2110 ng·h/mL
Cmax ([2]; 25 mg/kg Q7D×3, Day 15): 3640 ng/mL
half-life ([2]; 25 mg/kg Q7D×3, Day 15): 18.7 min
Vd ([2]; 25 mg/kg Q7D×3, Day 15): 8.28 L/kg
clearance ([2]; 50 mg/kg Q7D×3, Day 15): 197 mL/min/kg
AUC ([2]; 50 mg/kg Q7D×3, Day 15): 3250 ng·h/mL
Cmax ([2]; 50 mg/kg Q7D×3, Day 15): 5720 ng/mL
half-life ([2]; 50 mg/kg Q7D×3, Day 15): 20.8 min
Vd ([2]; 50 mg/kg Q7D×3, Day 15): 5.84 L/kg
clearance ([3]; in vivo, 4 mg/kg Q7D×3, Day 15): 80.7 mL/min/kg
half-life ([3]; in vivo, 4 mg/kg Q7D×3, Day 15): 16.3 min
clearance ([3]; in vivo, 8 mg/kg Q7D×3, Day 15): 72.5 mL/min/kg
half-life ([3]; in vivo, 8 mg/kg Q7D×3, Day 15): 15.2 min
AUC [3, 8]: 4260 ng·h/mL
clearance [3, 8]: 63.7 mL/min/kg
half-life [3, 8]: 17 min
AUC [3, 9]: 853 ng·h/mL
Cmax [3, 9]: 1580 ng/mL
Vd [3, 9]: 2.1 L/kg
AUC [3, 10]: 1910 ng·h/mL
Cmax [3, 10]: 3650 ng/mL
Vd [3, 10]: 1.78 L/kg
Cmax [3, 11]: 7100 ng/mL
Vd [3, 11]: 1.93 L/kg
AUC at 15 day ([3]; plasma, intravenous, dogs, 8 mg/kg dose of TH302, read-out: drug exposure (AUC of TH302)): ~1910 ng·h/mL
Vd ([4]; intravenous, 50 mg/kg, read-out: apparent steady-state volume of distribution (Vss)): 0.542 L/kg
clearance ([4]; intravenous, 50 mg/kg, read-out: total body clearance (Cl) (converted)): 72.8 mL/min/kg
half-life ([4]; iv, 50 mg/kg i.v.): 8.2 min
half-life ([4]; po, 50 mg/kg p.o. (so in the source)): 9.7 min
AUC(0-t) [5, 12]: 3140 ng·h/mL
clearance [5, 12]: 128 mL/min/kg
Cmax ([5]; cynomolgus monkey, plasma, iv, 20 mg/kg, cynomolgus monkeys, Mean (N=3), read-out: Cmax): 20700 ng/mL
MRT ([5]; cynomolgus monkey, plasma, iv, 20 mg/kg, cynomolgus monkeys, Mean (N=3), read-out: MRT): 19.8 min
Vd [5, 12]: 2.92 L/kg
Cmax ([5]; cynomolgus monkey, plasma, iv, 20 mg/kg, cynomolgus monkeys, individual animals, read-out: Cmax): 15900 ng/mL
MRT ([5]; cynomolgus monkey, plasma, iv, 20 mg/kg, cynomolgus monkeys, individual animals, read-out: MRT): 28.6 min
clearance [5, 13]: 128 mL/min/kg
Vd [5, 13]: 2.92 L/kg
Tmax ([5]; cynomolgus monkey, plasma, iv, cynomolgus monkeys, individual animals): 1.98 min
half-life ([5]; cynomolgus monkey, plasma, iv, monkeys, read-out: Plasma t1/2): 24.9 min
Vβ ([5]; cynomolgus monkeys, Mean (N=3)): 6.17 L/kg
half-life ([5]; cynomolgus monkeys, Mean (N=3)): 24.9 min
AUClast [5, 14]: 1519 ng·h/mL and 3961 ng·h/mL and 3932 ng·h/mL
Cl [5, 14]: 217 mL/min/kg and 81.7 mL/min/kg and 84.5 mL/min/kg
Cmax [5, 14]: 28500 ng/mL and 17600 ng/mL
MRT [5, 14]: 14.7 min and 16.1 min
Vss [5, 14]: 6.18 L/kg and 1.20 L/kg and 1.36 L/kg
Vβ [5, 14]: 15.5 L/kg and 1.37 L/kg and 1.65 L/kg
half-life [5, 14]: 49.6 min and 11.6 min and 13.6 min
predicted Cl [6]: 109 L/h
predicted Vss [6]: 493 L
distribution of radioactivity [7]: associated with the gastro-intestinal (GI) tract, its contents, and the kidney
